# Columns and labels:
# Assay in all cases: relative viability (nuclei count vs DMSO), 5 days (fraction); higher = more cells survive
# Ibrutinib + OSI-027 = compound: C=CC(=O)N1CCC[C@@H](n2nc(-c3ccc(Oc4ccccc4)cc3)c3c(N)ncnc32)C1 [Ibrutinib] + COc1cccc2cc(-c3nc([C@H]4CC[C@H](C(=O)O)CC4)n4ncnc(N)c34)[nH]c12 [OSI-027] (partner 0.5 µM)
# In short: (§1)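 Relative viability divides the nuclei count in treated wells by that in vehicle wells. Lung cancer cell lines were seeded in 1536-well plates, dosed by pin tool the next day, and fixed and stained after 5 days in one step with final 0.05% Triton X-100, 1% formaldehyde and 1 ug/ml Hoechst. Dosing was a single drug or a fixed anchor-drug dose plus five library-drug doses (not always all listed) in √10 steps, and values are medians of duplicate plates imaged at 4×.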
# Ibrutinib + Crizotinib = compound: C=CC(=O)N1CCC[C@@H](n2nc(-c3ccc(Oc4ccccc4)cc3)c3c(N)ncnc32)C1 [Ibrutinib] + C[C@@H](Oc1cc(-c2cnn(C3CCNCC3)c2)cnc1N)c1c(Cl)ccc(F)c1Cl [Crizotinib] (partner 1 µM)
# In short: as §1
# Ibrutinib + Linsitinib = compound: C=CC(=O)N1CCC[C@@H](n2nc(-c3ccc(Oc4ccccc4)cc3)c3c(N)ncnc32)C1 [Ibrutinib] + C[C@]1(O)C[C@@H](c2nc(-c3ccc4ccc(-c5ccccc5)nc4c3)c3c(N)nccn32)C1 [Linsitinib] (partner 1 µM)
# In short: as §1
# Ibrutinib + Vorinostat = compound: C=CC(=O)N1CCC[C@@H](n2nc(-c3ccc(Oc4ccccc4)cc3)c3c(N)ncnc32)C1 [Ibrutinib] + O=C(CCCCCCC(=O)Nc1ccccc1)NO [Vorinostat] (partner 1 µM)
# In short: as §1
Cell Line,relative viability (Ibrutinib + OSI-027; first compound 0.005 µM),relative viability (Ibrutinib + OSI-027; first compound 0.01581 µM),relative viability (Ibrutinib + OSI-027; first compound 0.05 µM),relative viability (Ibrutinib + OSI-027; first compound 0.1581 µM),relative viability (Ibrutinib + OSI-027; first compound 0.5 µM),relative viability (Ibrutinib + Crizotinib; first compound 0.005 µM),relative viability (Ibrutinib + Crizotinib; first compound 0.01581 µM),relative viability (Ibrutinib + Crizotinib; first compound 0.05 µM),relative viability (Ibrutinib + Crizotinib; first compound 0.1581 µM),relative viability (Ibrutinib + Crizotinib; first compound 0.5 µM),relative viability (Ibrutinib + Linsitinib; first compound 0.005 µM),relative viability (Ibrutinib + Linsitinib; first compound 0.01581 µM),relative viability (Ibrutinib + Linsitinib; first compound 0.05 µM),relative viability (Ibrutinib + Linsitinib; first compound 0.1581 µM),relative viability (Ibrutinib + Linsitinib; first compound 0.5 µM),relative viability (Ibrutinib + Vorinostat; first compound 0.005 µM),relative viability (Ibrutinib + Vorinostat; first compound 0.01581 µM),relative viability (Ibrutinib + Vorinostat; first compound 0.05 µM),relative viability (Ibrutinib + Vorinostat; first compound 0.1581 µM),relative viability (Ibrutinib + Vorinostat; first compound 0.5 µM)
LU99A,0.245,0.254,0.323,0.32,0.288,0.522,0.605,0.619,0.644,0.644,0.504,0.51,0.497,0.54,0.521,0.369,0.512,0.486,0.564,0.439
LXF-289,0.762,0.722,0.771,0.702,0.695,0.948,0.804,0.807,0.784,0.791,0.988,0.96,0.923,0.955,0.927,0.943,0.798,0.695,0.796,0.749
NCI-H23,0.331,0.562,0.681,0.57,0.607,0.539,0.528,0.527,0.592,0.466,0.396,0.508,0.545,0.568,0.518,0.467,0.527,0.514,0.605,0.594
NCI-H322M,0.482,0.564,0.513,0.507,0.488,0.964,0.848,0.887,1.03,0.608,0.782,0.813,0.784,0.82,0.516,0.74,0.915,0.79,0.571,0.802
NCI-H358,0.486,,0.378,0.488,0.211,0.706,0.45,0.401,0.682,0.303,0.563,0.394,0.355,0.743,0.28,0.606,0.598,,0.809,0.283
NCI-H441,0.579,0.664,0.597,0.677,0.707,0.669,0.842,0.919,0.707,0.881,0.64,0.615,0.585,0.518,0.495,0.789,0.694,1.05,0.823,0.919
NCI-H460,0.731,0.53,0.626,0.566,0.823,1.11,0.614,1.04,,1.12,0.643,0.652,0.861,0.76,0.772,0.855,0.667,0.695,0.794,0.781
NCI-H520,0.221,,0.212,0.258,0.241,0.725,0.578,0.727,0.704,0.861,0.928,0.76,0.971,1.03,0.883,0.821,0.665,0.715,0.757,0.719

# — the supplement of paper PMC10307832
